Where two headings read alike, the source gives them in different places.
Columns and labels:
[1] = system: HCV replicon cells Huh 9B; assay type: cell-based
[2] = system: HCV replicon cells Huh 9B; test: HCV replicon assay (luciferase readout); assay type: cell-based
How it was run: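 Compounds, made up at twice final strength (final DMSO 1%), were added to subgenomic replicon cells one day after plating. Incubation then ran 72 h at 37 °C, 5% CO2, without G418. Replication was quantified as firefly luciferase luminescence in lysed cells, with cytotoxicity assessed on a duplicate clear plate.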

[3] = concentration reducing total cell area by 50% relative to DMSO controls, methylene blue, absorbance 620 nm, 72 h incubation
[4] = Hepatitis C virus, 72 h, concentration reducing replicon level (luciferase activity) by 50% vs untreated cell control, 72 h incubation

SMILES	TD50 [1]	IC50 [2] [µM]	TD50 [1, 3]	IC50 [2, 4] [µM]	IC50 ([2]; Hepatitis C virus, concentration reducing replicon level (luciferase activity) by 50% vs untreated cell control, 72 h incubation) [µM]
CCc1nnc(NC(=O)c2ccc(C)c(-c3ccc(C(=O)Nc4ccc(CN5CCS(=O)(=O)CC5)cc4)cc3)c2)s1 [Example 143, 6-Methyl-biphenyl-3,4′-dicarboxylic acid 4′-{[4-(1,1-dioxo-1lambda*6*-thiomorpholin-4-ylmethyl)-phenyl]-amide} 3-[(5-ethyl-[1,3,4]thiadiazol-2-yl)-amide]]	* (key: * < 50 μM; ** > 50 μM)	1 to 5			
CS(=O)(=O)N1CCN(Cc2ccc(NC(=O)c3ccc(-c4cc(NC(=O)[C@H]5CCCN5)ccc4Cl)cc3)cc2)CC1 [Example 250, (R)-Pyrrolidine-2-carboxylic acid {6-chloro-4′-[4-(4-methanesulfonyl-piperazin-1-ylmethyl)-phenylcarbamoyl]-biphenyl-3-yl}-amide]			* (* < 50 μM)	< 1	
Cc1ccc(C(=O)Nc2ccc(N3CCOCC3)cc2)cc1-c1ccc(C(=O)Nc2cccc(Br)c2)cc1 [Example 1, 6-Methyl-biphenyl-3,4′-dicarboxylic acid 4′-[(3-bromo-phenyl)-amide] 3-[(4-morpholin-4-yl-phenyl)-amide]]	** (key: * < 50 μM; ** > 50 μM)	1 to 5			
Cc1ccc(C(=O)Nc2ccc(N3CCOCC3)cc2)cc1-c1ccc(NC(=O)c2ccc(N3CCOCC3)cc2)cc1 [Example 119, 6-Methyl-4′-(4-morpholin-4-yl-benzoylamino)-biphenyl-3-carboxylic acid (4-morpholin-4-yl-phenyl)-amide]			** (** > 50 μM)	1 to 5	
Cc1ccc(C(=O)Nc2ccc(N3CCOCC3)cc2)cc1-c1ccc(C(=O)NCCc2cnc[nH]2)cc1 [Example 13, 6-Methyl-biphenyl-3,4′-dicarboxylic acid 4′-{[2-(3H -imidazol-4-yl)-ethyl]-amide} 3-[(4-morpholin-4-yl-phenyl)-amide]]	* (key: * < 50 μM; ** > 50 μM)	> 5			
Cc1ccc(C(=O)Nc2ccc(N3CCOCC3)cc2)cc1-c1ccc(C(=O)NCc2ccccc2Sc2ccccc2CO)cc1 [Example 49, 6-Methyl-biphenyl-3,4′-dicarboxylic acid 4′-[2-(2-hydroxymethyl-phenylsulfanyl)-benzylamide] 3-[(4-morpholin-4-yl-phenyl)-amide]]	** (key: * < 50 μM; ** > 50 μM)	< 1			
COc1cccc(NC(=O)c2ccc(-c3cc(NC(=O)c4ccc(N5CCOCC5)cc4)ccc3C)cc2)c1 [Example 91, 2′-Methyl-5′-(4-morpholin-4-yl-benzoylamino)-biphenyl-4-carboxylic acid (3-methoxy-phenyl)-amide]			** (** > 50 μM)	1 to 5	
Cc1ccc(C(=O)Nc2ccc(C(=O)N(C)C)cc2)cc1-c1ccc(C(=O)Nc2ccc(CN3CCS(=O)(=O)CC3)cc2)cc1 [Example 142, 6-Methyl-biphenyl-3,4′-dicarboxylic acid 3-[(4-dimethylcarbamoyl-phenyl)-amide] 4′-{[4-(1,1-dioxo-1lambda*6*-thiomorpholin-4-ylmethyl)-phenyl]-amide}]	* (key: * < 50 μM; ** > 50 μM)	1 to 5			
Cc1ccc(NC(=O)c2ccc(N3CCOCC3)cc2)cc1-c1ccc(C(=O)Nc2ccc3cc[nH]c3c2)cc1 [Example 93, 2′-Methyl-5′-(4-morpholin-4-yl-benzoylamino)-biphenyl-4-carboxylic acid (1H-indol-6-yl)-amide]			** (** > 50 μM)	< 1	
Cc1ccc(NC(=O)c2ccc(N3CCOCC3)cc2)cc1-c1ccc(C(=O)Nc2cccc(OC(F)(F)F)c2)cc1 [Example 68, 2′-Methyl-5′-(4-morpholin-4-yl-benzoylamino)-biphenyl-4-carboxylic acid (3-trifluoromethoxy-phenyl)-amide]			** (** > 50 μM)	1 to 5	
Cc1ccc(NC(=O)c2cccs2)cc1-c1ccc(C(=O)Nc2ccc(CN3CCS(=O)(=O)CC3)cc2)cc1 [Example 155, Thiophene-2-carboxylic acid {4′-[4-(1,1-dioxo-1lambda*6*-thiomorpholin-4-ylmethyl)-phenylcarbamoyl]-6-methyl-biphenyl-3-yl}-amide]			* (* < 50 μM)	< 1	
Cc1ccc(C(=O)Nc2ccc(N3CCOCC3)cc2)cc1-c1ccc(CNC2CC2)cc1 [Example 98, 4′-Cyclopropylaminomethyl-6-methyl-biphenyl-3-carboxylic acid (4-morpholin-4-yl-phenyl)-amide]			* (* < 50 μM)	1 to 5	
Cc1ccc(C(=O)Nc2ccc(N3CCOCC3)cc2)cc1-c1ccc(C(=O)Nc2ccc(N)cc2)cc1 [Example 53, 6-Methyl-biphenyl-3,4′-dicarboxylic acid 4′-[(4-amino-phenyl)-amide] 3-[(4-morpholin-4-yl-phenyl)-amide]]	** (key: * < 50 μM; ** > 50 μM)	1 to 5			
Cc1ccc(CNCc2cccc(Cl)c2)cc1-c1ccc(C(=O)Nc2ccc(CN3CCS(=O)(=O)CC3)cc2)cc1 [Example 199, 5′-[(3-Chloro-benzylamino)-methyl]-2′-methyl-biphenyl-4-carboxylic acid [4-(1,1-dioxo-1lambda*6*-thiomorpholin-4-ylmethyl)-phenyl]-amide]			* (* < 50 μM)		1 to 5
CCC1(c2ccc(NC(=O)c3ccc(-c4cc(C(=O)Nc5ccc(N6CCOCC6)cc5)ccc4C)cc3)cc2)CCC(O)NC1=O (stereo not shown) [Example 71, 6-Methyl-biphenyl-3,4′-dicarboxylic acid 4′-{[4-(3-ethyl-6-hydroxy-2-oxo-piperidin-3-yl)-phenyl]-amide} 3-[(4-morpholin-4-yl-phenyl)-amide]]	* (key: * < 50 μM; ** > 50 μM)	< 1			
CS(=O)(=O)N1CCN(Cc2ccc(NC(=O)c3ccc(-c4cc(NC(=O)NC5CCCCC5)ccc4OC(F)(F)F)cc3)cc2)CC1 [Example 235, 5′-(3-Cyclohexyl-ureido)-2′-trifluoromethoxy-biphenyl-4-carboxylic acid [4-(4-methanesulfonyl-piperazin-1-ylmethyl)-phenyl]-amide]			* (* < 50 μM)	< 1	
Cc1ccc(C(=O)Nc2ccc(N3CCOCC3)cc2)cc1-c1ccc(C(=O)Nc2ccc(C(=O)N3CCCCC3)cc2)cc1 [Example 58, 6-Methyl-biphenyl-3,4′-dicarboxylic acid 3-[(4-morpholin-4-yl-phenyl)-amide] 4′-{[4-(piperidine-1-carbonyl)-phenyl]-amide}]	** (key: * < 50 μM; ** > 50 μM)	1 to 5			
Cc1ccc(NS(=O)(=O)c2ccc(Cl)s2)cc1-c1ccc(C(=O)Nc2ccc(CN3CCS(=O)(=O)CC3)cc2)cc1 [Example 204, 5′-(5-Chloro-thiophene-2-sulfonylamino)-2′-methyl-biphenyl-4-carboxylic acid [4-(1,1-dioxo-1lambda*6*-thiomorpholin-4-ylmethyl)-phenyl]-amide]			* (* < 50 μM)	1 to 5	
Cc1ccc(C(=O)Nc2ccc(N3CCOCC3)cc2)cc1-c1ccc(C(=O)Nc2ccc(CC#N)cc2)cc1 [Example 39, 6-Methyl-biphenyl-3,4′-dicarboxylic acid 4′-[(4-cyanomethyl-phenyl)-amide] 3-[(4-morpholin-4-yl-phenyl)-amide]]	* (key: * < 50 μM; ** > 50 μM)	1 to 5			
Cc1ccc(C(=O)Nc2ccc(N3CCOCC3)cc2)cc1-c1ccc(NC(=O)c2ccc(CN3CCOCC3)cc2)cc1 [Example 118, 6-Methyl-4′-(4-morpholin-4-ylmethyl-benzoylamino)-biphenyl-3-carboxylic acid (4-morpholin-4-yl-phenyl)-amide]			* (* < 50 μM)	> 5	
Cc1ccc(C(=O)Nc2ccc(N3CCOCC3)cc2)cc1-c1ccc(C(=O)Nc2ccc(-c3cc[nH]n3)cc2)cc1 [Example 56, 6-Methyl-biphenyl-3,4′-dicarboxylic acid 3-[(4-morpholin-4-yl-phenyl)-amide] 4′-{[4-(1H-pyrazol-3-yl)-phenyl]-amide}]	* (key: * < 50 μM; ** > 50 μM)	< 1			
CCCC(=O)Nc1ccc(C)c(-c2ccc(C(=O)Nc3ccc(CN4CCS(=O)(=O)CC4)cc3)cc2)c1 [Example 182, 5′-Butyrylamino-2′-methyl-biphenyl-4-carboxylic acid [4-(1,1-dioxo-1lambda*6*-thiomorpholin-4-ylmethyl)-phenyl]-amide]			* (* < 50 μM)	< 1	
O=C(Nc1ccc(CN2CCS(=O)(=O)CC2)cc1)c1ccc(-c2cc(NC(=O)C3CCCCC3)ccc2OC(F)(F)F)cc1 [Example 192, 5′-(Cyclohexanecarbonyl-amino)-2′-trifluoromethoxy-biphenyl-4-carboxylic acid [4-(1,1-dioxo-1lambda*6*-thiomorpholin-4-ylmethyl)-phenyl]-amide]			* (* < 50 μM)	< 1	
Cc1ccc(NC(=O)c2cccs2)cc1-c1ccc(C(=O)Nc2ccc3cn[nH]c3c2)cc1 [Example 213, Thiophene-2-carboxylic acid [4′-(1H-indazol-6-ylcarbamoyl)-6-methyl-biphenyl-3-yl]-amide]			* (* < 50 μM)	1 to 5	
Cc1ccc(C(=O)Nc2ccc(N3CCOCC3)cc2)cc1-c1ccc(C(=O)NCc2cccc(Cl)c2)cc1 [Example 83, 6-Methyl-biphenyl-3,4′-dicarboxylic acid 4′-(3-chloro-benzylamide) 3-[(4-morpholin-4-yl-phenyl)-amide]]	** (key: * < 50 μM; ** > 50 μM)	1 to 5			
Cc1ccc(C(=O)Nc2ccc(N3CCOCC3)cc2)cc1-c1ccc(C(=O)Nc2cccc(CN3CCS(=O)(=O)CC3)c2)cc1 [Example 136, 6-Methyl-biphenyl-3,4′-dicarboxylic acid 4′-{[3-(1,1-dioxo-1lambda*6*-thiomorpholin-4-ylmethyl)-phenyl]-amide} 3-[(4-morpholin-4-yl-phenyl)-amide]]	* (key: * < 50 μM; ** > 50 μM)	1 to 5			

Source: patent US8008303B2, “Biphenyl derivatives and their use in treating hepatitis C” (AstraZeneca AB, priority 2005, dated 2011)
